{"source": "patent US6372943B1", "about": "“Polyenepolycarboxylic acids, derivatives thereof with respect to carboxyl groups, or salts of these” (Fujisawa Pharmaceutical Co., Ltd., priority 1998, dated 2002)", "key": {"[1]": {"assay": "Dispersing activity, organic pigment in an aqueous system case 1, phthalocyanine green (Example 12)", "details": "standing three hours", "procedure": "Into a test tube (16×150 mm) were placed a phthalocyanine green suspension (5 mL: phthalocyanine green 16 mg/distilled water 200 mL) and the filtrate (evaporated to dryness) obtained in culture example 1 in a predetermined amount, followed by stirring for 15 seconds with a point mixer. After the stirring, the resulting mixture liquid was allowed to stand for three hours, and then the diameter of phthalocyanine green deposited on the bottom of the test tube was measured to evaluate the dispersibility from the diameter measured. That is, a greater diameter measured is indicative of better dispersibility. For comparison, the same procedure was taken with commercially available naphthalenesulfonate or lignin sulfonate."}, "[2]": {"assay": "Dispersing activity, organic pigment in a non-aqueous system case 1, ethyl acetate (Example 14)", "procedure": "(§1) Into a test tube (16×150 mm) was scaled and collected 0.5 mL of a suspension of copper phthalocyanine blue in ethyl acetate (40 mg/10 mL) under stirring with a point mixer, and ethyl acetate (4.5 mL) was further added thereto.\n(§2) To this suspension was added a solution of each of S1 and S2 anhydrides obtained in preparation example 1 in ethyl acetate (20 mg/2 mL), and ethyl acetate was further added thereto to give a total amount of 6 mL. This liquid was stirred with a point mixer for 15 seconds, treated with ultrasonic wave for 30 minutes, and then allowed to stand for 10 to 30 minutes. The resulting supernatant liquid (0.5 mL) was colle cted, admixed with ethyl acetate to give a total amount of 3 mL and then measured for absorbance at 660 wavelength. From the absorbance thus measured, the dispersibility was evaluated."}, "[3]": {"assay": "Dispersing activity, organic pigment in a non-aqueous system case 3, ethanol (Example 16)", "details": "supernatant 0.25 mL", "procedure": "as §1, §2\nThe same procedure as in example 14 except for the use of ethanol instead of ethyl acetate was performed. The amount of a supernatant liquid was 0.25 mL. From the absorbance thus measured, the dispersing activity was evaluated."}, "[4]": {"assay": "Sequestering ability against calcium ion under alkaline condition (pH13) (Example 17)", "format": "physicochemical", "procedure": "First, a liquid for measurement was prepared in the following manner. Potassium oxalate (0.6 g) was dissolved in 0.1N sodium hydroxide (500 mL), and in the resulting solution (10 mL) was dissolved pentasodium salt of S1 compound (40) mg) or heptasodium salt of S2 compound (40 mg) to give the liquid for measurement. As a titrant was used 2.2% calcium acetate solution.\nThe titrant was added dropwise to this liquid for measurement under stirring until the liquid for measurement became turbid by precipitation of calcium oxalate to determine the titer used A (mL). Another liquid for measurement not containing any one of the test samples was also measured in the same manner as above to determine the titer of blank B (mL). Based on the titers A and B, the sequestering ability against calcium ion was calculated according to the following formula. For comparison, an existing chelating agent (EDTA·4Na) was treated in the same manner as above to calculate its sequestering ability against calcium ion.\nSequestering ability against calcium ion [Ca ion (mg)/test sample (1 g)]=(A−B)×(1 g/test sample amount precisely weighed)×5\nwherein the numeral “5” is the amount of Ca ion (5 mg) equivalent to 1 mL of the 2.2% calcium acetate solution."}, "[5]": {"assay": "Detergent activity against artificially soiled cloth, Launder-o-meter (Example 19)", "details": "additive 0.25 g/L in basic washing liquid; 20° C., 10 minutes; ratio to washing liquid with no addition", "procedure": "A detergency test was conducted using a Launder-o-meter as a detergency tester by washing 15 pieces of artificially wet-soiled cloth (size: 5×5 cm, dirt composition: oleic acid 28.3%, triolein 15.6%, cholesterol oleate 12.2%, liquid paraffin 2.5%, squalene 2.5%, cholesterol 1.6%, gelatin 7.0%, soil matter 29.8% and carbon black 0.2-0.3%) available from SENTAKU KAGAKU KYOKAI (foundation) in a washing liquid (liquid temperature: 20° C.) of the composition shown in Table 25 for 10 minutes, followed by rinsing for three minutes.\nJudgment was done in the following manner. The reflectivity of each of the 15 pieces of artificially soiled cloth was measured before and after the test by means of a spectrocolorizeter, and from the mean value of the measured values the detergency was calculated according to the formula of Kubelka and Munk. The ratio of the detergency calculated of a sample to the detergency of a washing liquid with no addition was found as a detergency ratio."}, "[6]": {"assay": "Dispersing activity, organic pigment in a non-aqueous system case 2, S0 anhydride in ethyl acetate (Example 15)", "details": "supernatant 0.25 mL", "procedure": "as §1, §2\nS0 anhydride obtained in preparation example 11 was treated in the same manner as in example 14. The resulting supernatant liquid (0.25 mL) was collected, admixed with ethyl acetate to give a total amount of 3 mL, and then measured for absorbance. From the absorbance thus measured, the dispersing activity was evaluated."}}, "data": [{"molecule": "naphthalenesulfonate", "values": [{"measurement": "Diameter of phthalocyanine green deposited", "setting": "[1]; 0.17 mg", "result": 4, "unit": "mm"}, {"measurement": "Diameter of phthalocyanine green deposited", "setting": "[1]; 0.85 mg", "result": 5, "unit": "mm"}, {"measurement": "Diameter of phthalocyanine green deposited", "setting": "[1]; 1.7 mg", "result": 6, "unit": "mm"}, {"measurement": "Diameter of phthalocyanine green deposited", "setting": "[1]; 8.5 mg", "result": 6, "unit": "mm"}, {"measurement": "Diameter of phthalocyanine green deposited", "setting": "[1]; 17 mg", "result": 6, "unit": "mm"}]}, {"molecule": "CC/C=C/C1=C(CC(CC)CC2=C(CCC(=O)O)C(=O)OC2=O)C(=O)OC1=O", "note": "(stereo not shown) [S1 anhydride]", "values": [{"measurement": "Absorbance (660 nm)", "setting": "[2]; amount added 2.5 mg", "result": 0.66}, {"measurement": "Absorbance (660 nm)", "setting": "[2]; amount added 5 mg", "result": 1.27}, {"measurement": "Absorbance (660 nm)", "setting": "[2]; amount added 10 mg", "result": 1.86}, {"measurement": "Absorbance (660 nm)", "setting": "[3]; amount added 0.25 mg", "result": 0.05}, {"measurement": "Absorbance (660 nm)", "setting": "[3]; amount added 0.50 mg", "result": 0.69}, {"measurement": "Absorbance (660 nm)", "setting": "[3]; amount added 1.00 mg", "result": 0.63}]}, {"molecule": "O=C([O-])CN(CCN(CC(=O)[O-])CC(=O)[O-])CC(=O)[O-].[Na+].[Na+].[Na+].[Na+]", "note": "[EDTA · 4Na, EDTA·4Na]", "values": [{"measurement": "Sequestering ability against calcium ion, Ca ion", "setting": "[4]", "result": "92 mg/1 g of a test sample"}]}, {"molecule": "O=P(O)(O)OP(=O)(O)OP(=O)(O)O", "note": "[Sodium tripolyphosphate]", "values": [{"measurement": "Detergency ratio", "setting": "[5]", "result": 1.38}]}, {"molecule": "CC/C=C/C1=C(CCC(=O)O)C(=O)OC1=O", "note": "[S0 anhydride]", "values": [{"measurement": "Absorbance (660 nm)", "setting": "[6]; amount added 0.5 mg", "result": 0.84}, {"measurement": "Absorbance (660 nm)", "setting": "[6]; amount added 1.0 mg", "result": 0.89}]}, {"molecule": "O=C([O-])CC(O)(CC(=O)[O-])C(=O)[O-].[Na+].[Na+].[Na+]", "note": "[Trisodium citrate]", "values": [{"measurement": "Detergency ratio", "setting": "[5]", "result": 1.38}]}]}
